Results taken from article PMC6977461 (Chemical Science, 2019).

Tests used:
mouse GLP-1 receptor [1] = target: T1, mouse GLP-1 receptor (Mus musculus, UniProt O35659); assay: radioligand binding assay, [125I]GLP-1(7-36), βTC6 cell membrane homogenates
T1 construct: βTC6 cells which express GLP-1R endogenously; host or cells: βTC6 cells
T1 sequence (O35659 22-463): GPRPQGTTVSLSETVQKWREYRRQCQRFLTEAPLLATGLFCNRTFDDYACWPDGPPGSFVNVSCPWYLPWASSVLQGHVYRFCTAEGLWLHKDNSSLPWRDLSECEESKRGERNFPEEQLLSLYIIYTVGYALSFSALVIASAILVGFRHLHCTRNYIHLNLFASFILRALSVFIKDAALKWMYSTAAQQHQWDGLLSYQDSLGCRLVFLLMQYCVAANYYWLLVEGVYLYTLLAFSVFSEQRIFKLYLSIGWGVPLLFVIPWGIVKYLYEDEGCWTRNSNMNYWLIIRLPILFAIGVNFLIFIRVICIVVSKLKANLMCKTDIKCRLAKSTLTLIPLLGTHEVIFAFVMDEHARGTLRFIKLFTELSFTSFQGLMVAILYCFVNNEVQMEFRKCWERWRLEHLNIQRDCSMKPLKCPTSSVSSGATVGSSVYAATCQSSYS
Description: In vitro pharmacology: Affinity (IC50)
and 1% BSA. […] Following
incubation, the samples are filtered rapidly under vacuum through glass fiber filters (GF/B, Packard)
presoaked with 0.3% PEI and rinsed several times with an ice-cold buffer containing 50 mM Tris-HCl
and 500 mM NaCl using a 96-sample cell harvester (Unifilter, Packard). The filters are dried then
counted for radioactivity in a scintillation counter (Topcount, Packard) using a scintillation cocktail
(Microscint 0, Packard). The results are expressed as a percent inhibition of the control radioligand
at several concentrations to obtain a competition curve from which its IC50 is calculated using

[2] = mouse plasma degradation assay (Methods MP1-MP3); assay type: in vitro ADME; settings: mouse plasma diluted 1/1 with PBS; mouse plasma/PBS pH 7.4 (1/1), 5 µM, 37 °C, acetonitrile quench, LC-MS extracted ion chromatogram; MP1 for 2-8, MP2 for 9-11, MP3 for 12-14; mean, n = 3; read-out: Mouse plasma t1/2 (converted)
Description: The oligomer was then diluted 1/50 with a solution of plasma/PBS pH 7.4 (1/1) to afford a final concentration of 5μM and incubated at 37°C. […] (t = 0 min was determined using the reaction without plasma). The samples were frozen at -80°C before analysis. […] The supernatant was analyzed by LC-MS. The time course of oligomer degradation was determined by integrating the area of the peak in the extracted ion chromatogram. […] The oligomer was then diluted 1/50 with a solution of plasma/PBS pH 7.4 (1/1) to afford a final concentration of 5μM and incubated at 37°C. […] The oligomer was then diluted 1/50 with a solution of plasma/PBS pH 7.4 (1/1) to afford a final concentration of 5μM and incubated at 37°C. […] Animals. […] A standard chow diet (RM1 (E) 801492, SDS) and tap water were provided ad libitum. All animal protocols done by Physiogenex S.A.S were reviewed and approved by the local (Comité […] national ([…]

mouse GLP-1 receptor [3] = target: T1, mouse GLP-1 receptor; assay: cAMP production in βTC6 cells expressing GLP-1R endogenously (Method C2); assay type: cell-based
Description: (§1)  HEK-293T cells (Multispan inc., lot#.DC1267-062017) were suspended in cell culture media
(§2) (DMEM 1X + GlutaMAX (Gibco 31966-021)) complemented with FBS 10% (Sigma Aldrich
(§3)  βTC6 cells were suspended in HBSS buffer (Invitrogen) complemented with 20 mM HEPES (pH
(§4) In vitro pharmacology on HEK-293T cells (EC50: Method C1)
(§5) cells (Multispan inc., lot#.DC1267-062017) was determined by measuring their effects on cAMP
(§6) production using the HTRF detection method (performed by UREkA SARL). The cells were distributed
(§7) in 384-well microplates at a density of 1.0x10^4 cells/well. Stock solutions of the test compounds or the
(§8) reference agonist were prepared at a concentration of 1 mM in DMSO. Then, compounds to be tested
(§9) were diluted in cell culture media and transferred to the plate containing the cells to reach final assay

GLP-1R = GLP-1R (Homo sapiens, UniProt P43220); assay: cAMP production functional assay in HEK293 cells transfected with GLP-1R (Method C1); assay type: cell-based; design: host or cells: HEK-293T
GLP-1R, sequence (P43220 24-463): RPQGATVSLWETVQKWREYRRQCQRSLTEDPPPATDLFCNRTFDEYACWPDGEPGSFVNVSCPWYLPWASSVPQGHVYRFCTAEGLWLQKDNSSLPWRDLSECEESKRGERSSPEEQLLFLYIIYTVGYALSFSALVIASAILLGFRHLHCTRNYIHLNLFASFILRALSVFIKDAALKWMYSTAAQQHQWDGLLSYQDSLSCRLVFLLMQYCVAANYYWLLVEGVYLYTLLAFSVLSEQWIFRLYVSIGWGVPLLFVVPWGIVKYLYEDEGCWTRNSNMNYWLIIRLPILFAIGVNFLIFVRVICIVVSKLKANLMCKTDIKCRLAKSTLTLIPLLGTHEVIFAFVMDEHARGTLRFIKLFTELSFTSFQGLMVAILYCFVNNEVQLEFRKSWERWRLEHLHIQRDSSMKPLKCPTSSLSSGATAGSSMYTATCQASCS
Description: as §1, §2, §3, §4, §5, §6, §7, §8, §9

- IC50 (mouse GLP-1 receptor [1]): 32 nM
- half-life at 5 µM [2]: 14.4 min
- Potency (%), Table S1 (mouse GLP-1 receptor [3]; from EC50 in βTC6 cAMP assay, footnote: compare to GLP-1-NH2 (2)): 70%
- EC50 (mouse GLP-1 receptor [3]; read-out: EC50 (GLP-1R potency), Table S1): 0.14 nM
- EC50 (GLP-1R; HEK-293T cells exogenously expressing human GLP-1R, cAMP by HTRF, 10 min at 37 °C, Method C1, mean, n = 3 (2: n = 6), read-out: EC50 (GLP-1R potency)): 2.7 pM
- Potency (%), percentage of potency compared to GLP-1-NH2 (GLP-1R; from EC50 in HEK293 GLP-1R cAMP assay): 117%
Compound: CC[C@H](C)[C@H](NC(=O)[C@H](Cc1ccccc1)NC(=O)[C@H](CCC(=O)O)NC(=O)[C@H](CCCCN)NC(=O)[C@H](C)NC(=O)[C@H](C)NC(=O)[C@H](CCC(N)=O)NC(=O)CNC(=O)[C@H](CCC(=O)O)NC(=O)[C@H](CC(C)C)NC(=O)[C@H](Cc1ccc(O)cc1)NC(=O)[C@H](CO)NC(=O)[C@H](CO)NC(=O)[C@@H](NC(=O)[C@H](CC(=O)O)NC(=O)[C@H](CO)NC(=O)[C@@H](NC(=O)[C@H](Cc1ccccc1)NC(=O)[C@@H](NC(=O)CNC(=O)[C@H](CCC(=O)O)NC(=O)NC[C@H](C)NC(=O)[C@@H](N)Cc1c[nH]cn1)[C@@H](C)O)[C@@H](C)O)C(C)C)C(=O)N[C@@H](C)C(=O)N[C@@H](Cc1c[nH]c2ccccc12)C(=O)N[C@@H](CC(C)C)C(=O)N[C@H](C(=O)N[C@@H](CCCCN)C(=O)NCC(=O)N[C@@H](CCCNC(=N)N)C(=O)NCC(N)=O)C(C)C [compound 3]
